Assay results as given in patent publication US20170226139A1, “CRYSTALLINE SALTS OF (Z)-O-OCTADEC-9-EN-1-YL O,O-DIHYDROGEN PHOSPHOROTHIOATE” (priority 2013, published 2017).
Entries after “also recorded” stand apart in the source; their conditions may differ. Read-outs that look alike come from different tables or passages of the source.

What was measured:
[1] = system: female murine Animal Model of GI-ARS (TAI); assay: Survival after total abdominal irradiation (TAI), murine model of GI-ARS (UTHSC, 2010); format: in vivo; details: UTHSC 2010 (TAI), 0.1 mg/kg, start +24, 15.0 Gy, non-GLP
Protocol: These Animal Model studies were all conducted using partial body irradiation (PBI) with tibial bone marrow sparing except the earliest study which was performed with Total Abdominal Irradiation (TAI). The male Rhesus macaque model was developed by MacVittie. The female inbred murine PBI GI-ARS Animal Model was developed by the inventors. […] Differences in radiation sensitivity by gender in rodent species are well appreciated. We are not aware of PBI GI-ARS models other than these that meet criteria required to conduct a prospective, blinded, controlled, randomized study of efficacy.

[2] = system: Cultured human peripheral lymphocytes cells; format: cell-based; details: for Aberrant Cells Mean % −g: excluding gaps only; for Aberrant Cells Mean % +g: plus cells with gaps only
Protocol: Cultured human peripheral lymphocytes cells were incubated in vitro with Rx100.Lysine for 3 hours with and without S9 mix and for 24 hours without S9 mix. For Rx100.Lysine, concentrations ranging from 3.39 to 500 μg/mL were examined in both treatment conditions. Adjusting for purity, the concentration ranges were 3.06 to 452 μg/mL. […] This increase was just above the historical vehicle control range (0 to 2.0%) for 3 hour treatment without metabolic activation. Thus the response observed is a weak positive and of questionable biological significance cytotoxicity was present just below the acceptable limit of 50±5% for this assay.
Thus, Rx100.Lysine was considered negative for inducing chromosome aberrations, polyploidy and endoreduplication, in cultured human peripheral blood lymphocytes following a 3 hour treatment with and a 24 treatment without metabolic activation.

Sprague Dawley rats = assay: 28-day repeat-dose subcutaneous toxicity and toxicokinetics in rats; format: in vivo
Excerpt: (§1) The remaining 5 rats per group in the control and high dose groups were then allowed a 14-day recovery period following treatment. Parameters evaluated included mortality (twice daily) clinical signs, food consumption (weekly), body weights (weekly), ophthalmoscopy (pre-dosing and prior to necropsy), hematology and clinical chemistry (Week 4), gross pathology, organ weights, and histopathology for all tissues in all dose groups. […] Ophthalmological examinations were unremarkable. […] Secondary changes included increased spleen weights and changes in other male reproductive organs. An increase in adrenal weights may have been related to a stress response. Macroscopic changes at necropsy included small testes (middle and high dose) and lesions apparent at the injection sites in some animals at all dose levels.
(§2) At recovery, only effects in male reproductive organs were evident at the highest dose, with skin lesions still evident in some animals at the highest dose. […] Cmax and AUC were generally higher at the end of the study compared to day 1. No gender differences were apparent.

[3] = as above; format: in vivo, Sprague Dawley rats; details: Sprague Dawley, rat, plasma, subcutaneous; day 27; lowest dose of 1.81 mg/kg/day
Excerpt: as §1, §2

[4] = system: bone marrow cells (micronucleated PCEs); assay: In vivo rat bone marrow micronucleus assay; set-up: species or system Sprague-Dawley rats
Protocol: A GLP-compliant rat micronucleus study was performed using male Sprague-Dawley rats (n=5/group) administered single subcutaneous doses of Rx100.lysine at 0 (0.5% sterile water for injection with 10 mM L-histidine), 125, 250, and […] (doses corrected for purity were 113, 225 and 452 mg/kg). One additional group received the positive control material (cyclophosphamide). Five animals per group were sacrificed 24 hours postdose; five animals from the vehicle and high dose group were sacrificed 48 hours postdose. Following sacrifice, bone marrow cells were collected from the femur. 2000 PCEs per animal were analyzed for the frequency of micronuclei. […] The materials were also shown to be homogenous (relative standard deviation [RSD] of 0.7 to 0.9%). […] Thus, Rx100.Lysine was considered to be negative in the micronucleus assay.

[5] = 3-hour treatment with metabolic activation, 84.0 μg/mL
[6] = 3-hour treatment with metabolic activation, 120 μg/mL
[7] = 3-hour treatment with metabolic activation, 172 μg/mL
[8] = 3-hour treatment without metabolic activation, 120 μg/mL
[9] = 3-hour treatment without metabolic activation, 245 μg/mL
[10] = 3-hour treatment without metabolic activation, 350 μg/mL
[11] = 24-hour treatment without metabolic activation, 41.2 μg/mL
[12] = 24-hour treatment without metabolic activation, 84.0 μg/mL
[13] = 24-hour treatment without metabolic activation, 120 μg/mL
[14] = 125 mg/kg single subcutaneous dose, harvest 24 hour
[15] = 250 mg/kg single subcutaneous dose, harvest 24 hour

Q: Which results are given for `CCCCCCCC/C=C\CCCCCCCCOP(O)(O)=S` [Rx100, (Z)—O-octadec-9-en-1-yl O,O-dihydrogen phosphorothioate]?
A: Survival, Rx100 arm (survivors/animals) ([1]; single cell under Day 10/Day ≧30): 10/14; Survival advantage ([1]; single cell under Day 10/Day ≧30, vs vehicle): 42%

Q: With `CCCCCCCC/C=C\CCCCCCCCOP(O)(O)=S` [Rx100.L-Lysine, (Z)—O-octadec-9-en-1-yl O,O-dihydrogen phosphorothioate] as the compound, how does the “Cytotoxicity (% of Control)” value [2, 5] read?
A: 77 % of Control

Q: What about the “Endoreduplicate Mean %” value [2, 5] of the same compound?
A: 0.0%

Q: What about the “Polyploidy Mean %” value [2, 5] of the same compound?
A: 0.0%

Q: What about the “Aberrant Cells Mean % −g” value [2, 5] of the same compound?
A: 0.0%

Q: And the “Aberrant Cells Mean % +g” value [2, 5]?
A: 1.5%

Q: What about the “Cytotoxicity (% of Control)” value [2, 6] of the same compound?
A: 65 % of Control

Q: And the “Endoreduplicate Mean %” value [2, 6]?
A: 0.0%

Q: What about the “Polyploidy Mean %” value [2, 6] of the same compound?
A: 0.0%

Q: And the “Aberrant Cells Mean % −g” value [2, 6]?
A: 0.5%

Q: What about the “Aberrant Cells Mean % +g” value [2, 6] of the same compound?
A: 2.5%

Q: And the “Cytotoxicity (% of Control)” value [2, 7]?
A: 68 % of Control

Q: What about the “Endoreduplicate Mean %” value [2, 7] of the same compound?
A: 0.0%

Q: And the “Polyploidy Mean %” value [2, 7]?
A: 0.0%

Q: What about the “Aberrant Cells Mean % −g” value [2, 7] of the same compound?
A: 0.5%

Q: What about the “Aberrant Cells Mean % +g” value [2, 7] of the same compound?
A: 3.0%

Q: What about the “Endoreduplicate Mean %” value [2, 8] of the same compound?
A: 0.0%

Q: And the “Polyploidy Mean %” value [2, 8]?
A: 0.5%

Q: And the “Aberrant Cells Mean % −g” value [2, 8]?
A: 0.5%

Q: What about the “Aberrant Cells Mean % +g” value [2, 8] of the same compound?
A: 1.0%

Q: What about the “Endoreduplicate Mean %” value [2, 9] of the same compound?
A: 0.0%

Q: And the “Polyploidy Mean %” value [2, 9]?
A: 1.5%

Q: And the “Aberrant Cells Mean % −g” value [2, 9]?
A: 3.0%

Q: And the “Aberrant Cells Mean % +g” value [2, 9]?
A: 6.0%

Q: And the “Endoreduplicate Mean %” value [2, 10]?
A: 0.0%

Q: And the “Polyploidy Mean %” value [2, 10]?
A: 3.0%

Q: And the “Aberrant Cells Mean % −g” value [2, 10]?
A: 6.0%

Q: And the “Aberrant Cells Mean % +g” value [2, 10]?
A: 8.5%

Q: What about the “Endoreduplicate Mean %” value [2, 11] of the same compound?
A: 0.0%

Q: And the “Polyploidy Mean %” value [2, 11]?
A: 0.0%

Q: And the “Aberrant Cells Mean % −g” value [2, 11]?
A: 0.5%

Q: What about the “Aberrant Cells Mean % +g” value [2, 11] of the same compound?
A: 3.0%

Q: And the “Endoreduplicate Mean %” value [2, 12]?
A: 0.0%

Q: What about the “Polyploidy Mean %” value [2, 12] of the same compound?
A: 0.0%

Q: What about the “Aberrant Cells Mean % −g” value [2, 12] of the same compound?
A: 2.0%

Q: And the “Aberrant Cells Mean % +g” value [2, 12]?
A: 5.5%

Q: What about the “Endoreduplicate Mean %” value [2, 13] of the same compound?
A: 0.0%

Q: And the “Polyploidy Mean %” value [2, 13]?
A: 1.0%

Q: And the “Aberrant Cells Mean % −g” value [2, 13]?
A: 0.5%

Q: And the “Aberrant Cells Mean % +g” value [2, 13]?
A: 4.5%

Q: And the “Genotoxic Effects” value ([2]; 3 hour treatment with S9 and 24 hour treatment without S9)?
A: Genotoxic Effects: Negative for inducing chromosome aberrations, polyploidy and endoreduplication following a 3 hour treatment

Q: And the “chromosome aberrations, polyploidy and endoreduplication” value ([2]; 3 hours with or 24 hours without metabolic activation, listed as Rx100.Lysine)?
A: No increase in structural or numerical aberrations, polyploidy or endoreduplication; also recorded: negative

Q: And the “cells with chromosome aberrations” value ([2]; 3 hours without metabolic activation, increase only at 316 μg/mL, listed as Rx100.Lysine)?
A: small but statistically significant increase; also recorded: weakly positive

Q: What about the cytotoxicity ([2]; highest concentration tested, 3-hour exposure) of the same compound?
A: Cytotoxicity was observed

Q: And the “Cytotoxic Effect” value ([2]; study summary, primary human lymphocytes)?
A: Cytotoxic Effect: None

Q: What about the mortality (Sprague Dawley rats; 28 days SC, 1.81, 6.33 and 18.1 (later 12.7) mg/kg/day) of the same compound?
A: All animals survived the treatment period except for one high dose female

Q: And the injection site lesions (Sprague Dawley rats; 28 days SC, dose relationship to incidence and severity)?
A: discoloration, scabbing, and swelling was observed in all treatment groups

Q: What about the clinical chemistry changes (Sprague Dawley rats; at >6.33 mg/kg) of the same compound?
A: mildly lower albumin concentration and A/G ratio, higher globulin concentration and moderately higher triglycerides

Q: And the liver weights (Sprague Dawley rats; both genders)?
A: dose related increased liver weights in the middle and high dose groups

Q: What about the body weight gains (Sprague Dawley rats; high dose) of the same compound?
A: reduced

Q: What about the NOAEL (Sprague Dawley rats; males) of the same compound?
A: could not be clearly established

Q: What about the testicular weights (Sprague Dawley rats; males) of the same compound?
A: dose related decreased testicular weights in all groups of males

Q: What about the “hematology, red cell changes” value (Sprague Dawley rats; middle and high dose levels) of the same compound?
A: lower red cell parameters and higher reticulocyte counts

Q: What about the coagulation studies (Sprague Dawley rats; rat, in vivo) of the same compound?
A: lower APPT in the females at the high dose and higher fibrinogen levels at all doses

Q: And the “hematology, white cell parameters and platelets” value (Sprague Dawley rats; rat, in vivo)?
A: increased leukocyte, neutrophil, eosinophil and basophil counts and increased platelets

Q: And the “histopathology, injection sites” value (Sprague Dawley rats; rat, in vivo)?
A: chronic mixed cell inflammation at all doses

Q: And the “histopathology, liver” value (Sprague Dawley rats; rat, in vivo)?
A: dose related increased hepatocyte vacuolation at all doses

Q: And the “histopathology, testes” value (Sprague Dawley rats; rat, in vivo)?
A: degeneration and necrosis of the seminiferous tubules in all animals at the middle and high dose and in one animal at the low dose

Q: And the ophthalmological examinations (Sprague Dawley rats; rat, in vivo)?
A: unremarkable

Q: What about the “toxicokinetics, plasma concentrations” value (Sprague Dawley rats; rat, in vivo) of the same compound?
A: dose related increases in plasma concentrations

Q: What about the liver enzymes (Sprague Dawley rats; some animals at 18.1/12.7 mg/kg) of the same compound?
A: elevated liver enzymes

Q: And the AUC at 27 day [3]?
A: 5040 ng·h/mL

Q: And the “Mean % MNPC (±SD) Male” value [4, 14]?
A: 0.04%

Q: And the “Mean Ratio PCE:NCE (±SD) Male” value [4, 14]?
A: 0.55

Q: And the “Mean % MNPC (±SD) Male” value [4, 15]?
A: 0.07%

Q: And the “Mean Ratio PCE:NCE (±SD) Male” value [4, 15]?
A: 0.59

Q: What about the “Mean Ratio PCE:NCE (±SD) Male” value ([4]; 500 mg/kg single subcutaneous dose, harvest 48 hour) of the same compound?
A: 0.36

Q: What about the “Toxic/Cytotoxic Effects” value ([4]; all doses of the test article, statistically significant decreases in the PCE:NCE ratios) of the same compound?
A: Toxic/Cytotoxic Effects: Rx100.Lysine was cytotoxic to the bone marrow (i.e., statistically significant decreases in the PCE:NCE ratios)

Q: And the “micronucleated PCEs” value ([4]; any dose, 24 hour point, single SC dose)?
A: no increase in micronucleated PCEs

Q: And the clinical signs ([4]; high dose animals at 48 hours postdose)?
A: hunched posture, hypoactivity and irregular respiration

Q: And the “micronucleated PCEs” value ([4]; high dose animals, 48-hour time point, not considered biologically relevant)?
A: statistically significant increase

Q: What about the “micronucleus assay, overall result” value ([4]; rat, in vivo) of the same compound?
A: negative
